According to PubChem BioAssay (NCI):
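How tested: cells in 96-well plates exposed to compound for 48 hours at five concentrations. TGI is the concentration that stops growth completely.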

tested on: OVCAR-4 ovarian; assay: DTP human tumour cell line panel, 48 h

Row | Compound | TGI [µM]
1 | O=[N+]([O-])c1cccc2nccc(NCCN3CCOCC3)c12 | 25.6
2 | O=C1NC(N/N=C\c2ccccc2)=N/C1=C/c1ccccc1 | 55.9
3 | Cc1ccc(S(=O)(=O)N2CCNCCN(S(=O)(=O)c3ccc(C)cc3)CCNCC2)cc1 | 82.4
4 | CN=c1sc2nc(C#N)c(C#N)nc2n1C | 49.1

tested on: HT29 colon; assay: DTP human tumour cell line panel, 48 h

Row | Compound | TGI [µM]
5 | C=C1C(=O)O[C@H]2C1C[C@H](O)[C@@]1(C)OC1CC[C@@]1(C)O[C@H]21 (some centres undefined) | > 100
6 | O=C(NCCNCCNC(=O)c1cc(-c2ccccc2)nc2ccccc12)c1cc(-c2ccccc2)nc2ccccc12 | 3.24
7 | CC1=NN(c2nc(N)nc(/C(C#N)=C\c3ccc(-c4ccc([N+](=O)[O-])cc4)o3)n2)C(C)(C)C1 | > 100
8 | CCOC(=O)c1nc2ccc(C(F)(F)F)cc2nc1Nc1ccc(OC)cc1 | > 100
9 | COc1ccc2nc3ccc(OC)cc3c(SCCCl)c2c1 | > 52.4
10 | CCOC(=O)C(=CNc1ccc(F)c(F)c1)C(=O)OCC | > 100
11 | CC(Oc1ccccc1Cl)C(=O)NN1C(=O)CC(=O)N(c2ccc(Cl)cc2)C1=S (centres undefined) | > 100
12 | CC(C)[Si]1(C(C)C)OCC2OC(n3ccc(=O)[nH]c3=O)C([Se]c3ccccc3)C2O[Si](C(C)C)(C(C)C)O1 (centres undefined) | 3.99
13 | CN(N=O)c1nc2c(C(N)=O)ncn2s1 | > 100
14 | CC(Oc1ccc(Cl)cc1Cl)C(=O)NN1C(=O)CC(=O)N(c2ccccc2)C1=S (centres undefined) | > 100
15 | CC(C)(C)OC(=O)N1CCCC1C(=O)NC(c1ccccc1)c1ccccc1 (centres undefined) | > 100
16 | Cc1[nH]c(-c2ccccc2)c2nc(N(C)C)oc(=O)c12 | > 100
17 | O=C1Cc2cn[nH]c2-c2ccccc2N1 | > 100
18 | O=CNc1ccccc1OCCOc1ccccc1NC=O | > 100
19 | CCOC(=O)c1c[nH]c(C(=O)C=[N+]=[N-])c1C1CCN(CC)C1=S (centres undefined) | > 100
20 | Cc1ccc2nc(NS(=O)(=O)c3cc(C)c(Cl)cc3S)[nH]c2c1 | > 100
21 | O=C1CSC(c2ccccc2O)N1c1ccc(-n2c(-c3ccccc3)nc3ccccc3c2=O)cc1 (centres undefined) | > 100
22 | Cc1ccc(C(=O)Oc2ccccc2)cc1N=NN(C)C | > 100
23 | O=C1NC2(CCNCC2)Oc2ccccc21 | > 100
24 | O=[N+]([O-])c1cccc2nccc(NCCN3CCOCC3)c12 | 44.4
25 | O=C1NC(N/N=C\c2ccccc2)=N/C1=C/c1ccccc1 | > 100
26 | Cc1ccc(S(=O)(=O)N2CCNCCN(S(=O)(=O)c3ccc(C)cc3)CCNCC2)cc1 | 30.2
27 | CN=c1sc2nc(C#N)c(C#N)nc2n1C | 26

tested on: HCT-116 colon; assay: DTP human tumour cell line panel, 48 h

Row | Compound | TGI [µM]
28 | C=C1C(=O)O[C@H]2C1C[C@H](O)[C@@]1(C)OC1CC[C@@]1(C)O[C@H]21 (some centres undefined) | 30.2
29 | O=C(NCCNCCNC(=O)c1cc(-c2ccccc2)nc2ccccc12)c1cc(-c2ccccc2)nc2ccccc12 | 3.18
30 | CC1=NN(c2nc(N)nc(/C(C#N)=C\c3ccc(-c4ccc([N+](=O)[O-])cc4)o3)n2)C(C)(C)C1 | > 100
31 | CCOC(=O)c1nc2ccc(C(F)(F)F)cc2nc1Nc1ccc(OC)cc1 | > 100
32 | COc1ccc2nc3ccc(OC)cc3c(SCCCl)c2c1 | > 43.5
33 | CCOC(=O)C(=CNc1ccc(F)c(F)c1)C(=O)OCC | > 100
34 | CC(Oc1ccccc1Cl)C(=O)NN1C(=O)CC(=O)N(c2ccc(Cl)cc2)C1=S (centres undefined) | > 100
35 | CC(C)[Si]1(C(C)C)OCC2OC(n3ccc(=O)[nH]c3=O)C([Se]c3ccccc3)C2O[Si](C(C)C)(C(C)C)O1 (centres undefined) | 7.16
36 | CN(N=O)c1nc2c(C(N)=O)ncn2s1 | > 100
37 | CC(Oc1ccc(Cl)cc1Cl)C(=O)NN1C(=O)CC(=O)N(c2ccccc2)C1=S (centres undefined) | > 100
38 | CC(C)(C)OC(=O)N1CCCC1C(=O)NC(c1ccccc1)c1ccccc1 (centres undefined) | > 100
39 | Cc1[nH]c(-c2ccccc2)c2nc(N(C)C)oc(=O)c12 | > 100
40 | O=C1Cc2cn[nH]c2-c2ccccc2N1 | > 83.5
41 | O=CNc1ccccc1OCCOc1ccccc1NC=O | > 100
42 | CCOC(=O)c1c[nH]c(C(=O)C=[N+]=[N-])c1C1CCN(CC)C1=S (centres undefined) | > 100
43 | Cc1ccc2nc(NS(=O)(=O)c3cc(C)c(Cl)cc3S)[nH]c2c1 | > 100
44 | O=C1CSC(c2ccccc2O)N1c1ccc(-n2c(-c3ccccc3)nc3ccccc3c2=O)cc1 (centres undefined) | 35.9
45 | Cc1ccc(C(=O)Oc2ccccc2)cc1N=NN(C)C | > 100
46 | O=C1NC2(CCNCC2)Oc2ccccc21 | > 100
47 | O=[N+]([O-])c1cccc2nccc(NCCN3CCOCC3)c12 | 30.5
48 | O=C1NC(N/N=C\c2ccccc2)=N/C1=C/c1ccccc1 | > 100
49 | Cc1ccc(S(=O)(=O)N2CCNCCN(S(=O)(=O)c3ccc(C)cc3)CCNCC2)cc1 | 28.5
50 | CN=c1sc2nc(C#N)c(C#N)nc2n1C | 36

tested on: MOLT-4 leukemia; assay: DTP human tumour cell line panel, 48 h

Row | Compound | TGI [µM]
51 | C=C1C(=O)O[C@H]2C1C[C@H](O)[C@@]1(C)OC1CC[C@@]1(C)O[C@H]21 (some centres undefined) | 29.8
52 | O=C(NCCNCCNC(=O)c1cc(-c2ccccc2)nc2ccccc12)c1cc(-c2ccccc2)nc2ccccc12 | 5.52
53 | CC1=NN(c2nc(N)nc(/C(C#N)=C\c3ccc(-c4ccc([N+](=O)[O-])cc4)o3)n2)C(C)(C)C1 | > 100
54 | CCOC(=O)c1nc2ccc(C(F)(F)F)cc2nc1Nc1ccc(OC)cc1 | > 100
55 | COc1ccc2nc3ccc(OC)cc3c(SCCCl)c2c1 | 16.4
56 | CCOC(=O)C(=CNc1ccc(F)c(F)c1)C(=O)OCC | > 100
57 | CC(Oc1ccccc1Cl)C(=O)NN1C(=O)CC(=O)N(c2ccc(Cl)cc2)C1=S (centres undefined) | 95.8
58 | CC(C)(O)c1cc2c(cc1C(C)(C)O)-c1ccccc1-2 | > 100
59 | CC(C)[Si]1(C(C)C)OCC2OC(n3ccc(=O)[nH]c3=O)C([Se]c3ccccc3)C2O[Si](C(C)C)(C(C)C)O1 (centres undefined) | > 22.9
60 | CN(N=O)c1nc2c(C(N)=O)ncn2s1 | > 100
61 | CC(Oc1ccc(Cl)cc1Cl)C(=O)NN1C(=O)CC(=O)N(c2ccccc2)C1=S (centres undefined) | > 100
62 | CC(C)(C)OC(=O)N1CCCC1C(=O)NC(c1ccccc1)c1ccccc1 (centres undefined) | > 100
63 | Cc1[nH]c(-c2ccccc2)c2nc(N(C)C)oc(=O)c12 | > 100
64 | O=C1Cc2cn[nH]c2-c2ccccc2N1 | 49.7
65 | O=CNc1ccccc1OCCOc1ccccc1NC=O | > 100
66 | CCOC(=O)c1c[nH]c(C(=O)C=[N+]=[N-])c1C1CCN(CC)C1=S (centres undefined) | > 100
67 | Cc1ccc2nc(NS(=O)(=O)c3cc(C)c(Cl)cc3S)[nH]c2c1 | > 100
68 | O=C1CSC(c2ccccc2O)N1c1ccc(-n2c(-c3ccccc3)nc3ccccc3c2=O)cc1 (centres undefined) | > 100
69 | Cc1ccc(C(=O)Oc2ccccc2)cc1N=NN(C)C | > 100
70 | O=C1NC2(CCNCC2)Oc2ccccc21 | > 100
71 | O=[N+]([O-])c1cccc2nccc(NCCN3CCOCC3)c12 | > 56.5
72 | O=C1NC(N/N=C\c2ccccc2)=N/C1=C/c1ccccc1 | 50
73 | CN=c1sc2nc(C#N)c(C#N)nc2n1C | > 100

tested on: SN12C renal; assay: DTP human tumour cell line panel, 48 h

Row | Compound | TGI [µM]
74 | C=C1C(=O)O[C@H]2C1C[C@H](O)[C@@]1(C)OC1CC[C@@]1(C)O[C@H]21 (some centres undefined) | 32.4
75 | O=C(NCCNCCNC(=O)c1cc(-c2ccccc2)nc2ccccc12)c1cc(-c2ccccc2)nc2ccccc12 | 7.59
76 | CC1=NN(c2nc(N)nc(/C(C#N)=C\c3ccc(-c4ccc([N+](=O)[O-])cc4)o3)n2)C(C)(C)C1 | > 100
77 | COc1ccc2nc3ccc(OC)cc3c(SCCCl)c2c1 | > 100
78 | CCOC(=O)C(=CNc1ccc(F)c(F)c1)C(=O)OCC | > 100
79 | CC(Oc1ccccc1Cl)C(=O)NN1C(=O)CC(=O)N(c2ccc(Cl)cc2)C1=S (centres undefined) | > 100
80 | CC(C)(O)c1cc2c(cc1C(C)(C)O)-c1ccccc1-2 | > 100
81 | CC(C)[Si]1(C(C)C)OCC2OC(n3ccc(=O)[nH]c3=O)C([Se]c3ccccc3)C2O[Si](C(C)C)(C(C)C)O1 (centres undefined) | 5.57
82 | CN(N=O)c1nc2c(C(N)=O)ncn2s1 | > 100
83 | CC(Oc1ccc(Cl)cc1Cl)C(=O)NN1C(=O)CC(=O)N(c2ccccc2)C1=S (centres undefined) | > 100
84 | CC(C)(C)OC(=O)N1CCCC1C(=O)NC(c1ccccc1)c1ccccc1 (centres undefined) | > 100
85 | Cc1[nH]c(-c2ccccc2)c2nc(N(C)C)oc(=O)c12 | > 100
86 | O=C1Cc2cn[nH]c2-c2ccccc2N1 | > 63.9
87 | O=CNc1ccccc1OCCOc1ccccc1NC=O | > 100
88 | Cc1ccc2nc(NS(=O)(=O)c3cc(C)c(Cl)cc3S)[nH]c2c1 | > 100
89 | O=C1CSC(c2ccccc2O)N1c1ccc(-n2c(-c3ccccc3)nc3ccccc3c2=O)cc1 (centres undefined) | > 100
90 | Cc1ccc(C(=O)Oc2ccccc2)cc1N=NN(C)C | > 100
91 | O=C1NC2(CCNCC2)Oc2ccccc21 | > 100
92 | O=[N+]([O-])c1cccc2nccc(NCCN3CCOCC3)c12 | > 48
93 | O=C1NC(N/N=C\c2ccccc2)=N/C1=C/c1ccccc1 | > 100
94 | Cc1ccc(S(=O)(=O)N2CCNCCN(S(=O)(=O)c3ccc(C)cc3)CCNCC2)cc1 | > 100
95 | CN=c1sc2nc(C#N)c(C#N)nc2n1C | > 100

tested on: NCI-H522 lung; assay: DTP human tumour cell line panel, 48 h

Row | Compound | TGI [µM]
96 | C=C1C(=O)O[C@H]2C1C[C@H](O)[C@@]1(C)OC1CC[C@@]1(C)O[C@H]21 (some centres undefined) | 11.9
97 | O=C(NCCNCCNC(=O)c1cc(-c2ccccc2)nc2ccccc12)c1cc(-c2ccccc2)nc2ccccc12 | 6.97
98 | CC1=NN(c2nc(N)nc(/C(C#N)=C\c3ccc(-c4ccc([N+](=O)[O-])cc4)o3)n2)C(C)(C)C1 | > 100
99 | CCOC(=O)c1nc2ccc(C(F)(F)F)cc2nc1Nc1ccc(OC)cc1 | > 100
100 | COc1ccc2nc3ccc(OC)cc3c(SCCCl)c2c1 | > 100
101 | CCOC(=O)C(=CNc1ccc(F)c(F)c1)C(=O)OCC | > 100
102 | CC(Oc1ccccc1Cl)C(=O)NN1C(=O)CC(=O)N(c2ccc(Cl)cc2)C1=S (centres undefined) | > 100
103 | CC(C)(O)c1cc2c(cc1C(C)(C)O)-c1ccccc1-2 | > 100
104 | CC(C)[Si]1(C(C)C)OCC2OC(n3ccc(=O)[nH]c3=O)C([Se]c3ccccc3)C2O[Si](C(C)C)(C(C)C)O1 (centres undefined) | 4.36
105 | CN(N=O)c1nc2c(C(N)=O)ncn2s1 | > 100
106 | CC(Oc1ccc(Cl)cc1Cl)C(=O)NN1C(=O)CC(=O)N(c2ccccc2)C1=S (centres undefined) | > 100
107 | CC(C)(C)OC(=O)N1CCCC1C(=O)NC(c1ccccc1)c1ccccc1 (centres undefined) | > 100
108 | Cc1[nH]c(-c2ccccc2)c2nc(N(C)C)oc(=O)c12 | > 100
109 | O=C1Cc2cn[nH]c2-c2ccccc2N1 | 65.8
110 | O=CNc1ccccc1OCCOc1ccccc1NC=O | > 100
111 | CCOC(=O)c1c[nH]c(C(=O)C=[N+]=[N-])c1C1CCN(CC)C1=S (centres undefined) | > 100
112 | Cc1ccc2nc(NS(=O)(=O)c3cc(C)c(Cl)cc3S)[nH]c2c1 | > 100
113 | O=C1CSC(c2ccccc2O)N1c1ccc(-n2c(-c3ccccc3)nc3ccccc3c2=O)cc1 (centres undefined) | 66
114 | Cc1ccc(C(=O)Oc2ccccc2)cc1N=NN(C)C | > 100
115 | O=C1NC2(CCNCC2)Oc2ccccc21 | > 100
116 | O=[N+]([O-])c1cccc2nccc(NCCN3CCOCC3)c12 | 22
117 | O=C1NC(N/N=C\c2ccccc2)=N/C1=C/c1ccccc1 | 87
118 | Cc1ccc(S(=O)(=O)N2CCNCCN(S(=O)(=O)c3ccc(C)cc3)CCNCC2)cc1 | 36.5
119 | CN=c1sc2nc(C#N)c(C#N)nc2n1C | 31.5
